From EP4707284A1, “HETEROCYCLIC COMPOUND AND USE THEREOF” (Otsuka Pharmaceutical Co., Ltd., priority 2023, dated 2024)

Key:
in vitro = type: cell-based, human; details: human; 300 µmol/L, about 24 hours, PMA-differentiated HL-60 cells, LDH activity; no-treatment group 0%, cell lysis buffer-treated group 100%; read-out: cytotoxicity (%) Evaluation compound results
Method: An HL-60 cell line (human acute promyelocytic leukemia cells) was successively cultured in RPMI 1640 containing 20% fetal bovine serum (FBS) at 37°C in 95% atmosphere/5% CO2. Before evaluation, the cells were pre-cultured for about 72 hours in the presence of 10 nM phorbol 12-myristate 13-acetate (PMA) to induce macrophage-like differentiation.
Evaluation compounds were dissolved in DMSO to obtain 30 mmol/L solutions (or suspensions). Each DMSO solution was diluted 100-fold with RPMI 1640 containing 2% FBS (final concentration of the compound: 300 µmol/L) to obtain a treatment solution. The culture supernatant of the differentiated HL-60 cells was removed, and each treatment solution was added and cultured for about 24 hours, followed by cytotoxicity evaluation.
The activity of lactate dehydrogenase (LDH) was measured in the treatment solutions exposed to the cells for about 24 hours by using a commercial kit (Cytotoxicity LDH Assay Kit-WST, Dojindo Laboratories) and a plate reader (Tecan Infinite M1000). The obtained measurement values were used to calculate cytotoxicity (%) as comparison values for each evaluation compound-treated group, with the no-treatment group taken as 0% and the cell lysis buffer-treated group taken as 100%. The test was conducted in triplicate in three wells each, and the average values were used as adopted values.

[1] = type: physicochemical; details: Tris-hydrochloric acid buffer (pH 7.5) 50 mmol/L, magnesium chloride 5 mmol/L, evaluation compound 1 µmol/L, 37°C, 60 minutes, average of duplicate
How it was run: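 Stability in buffer assessed as brexpiprazole formation: duplicate reactions at 37°C, started by adding compound to pre-warmed solution, quenched at 0 or 60 min with internal-standard-containing acetonitrile/isopropanol (4:1). Calibration curves covered 0.01, 0.1 and 1 µmol/L of compound and brexpiprazole.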

| SMILES | cytotoxicity at 24 h, 300 µM (in vitro) [%] | Concentration of brexpiprazole formed [1] [nM] | Concentration of evaluation compound decreased [1] [nM] |
| --- | --- | --- | --- |
| CCOC(=O)CCCC(=O)OCOP(=O)([O-])OC[N+]1(CCCCOc2ccc3ccc(=O)[nH]c3c2)CCN(c2cccc3sccc23)CC1 [EX 68] | -6 | 0 | 90 |
| CCCCCCCCCC(=O)OCOP(=O)([O-])OC[N+]1(CCCCOc2ccc3ccc(=O)[nH]c3c2)CCN(c2cccc3sccc23)CC1 [EX 17, (4-(benzo[b]thiophen-4-yl)-1-(4-((2-oxo-1,2-dihydroquinolin-7-yl)oxy)butyl)piperazin-1-ium-1-yl)methyl ((decanoyloxy)methyl)phosphate] | 8 | 0 | 70 |
| O=C(OCOP(=O)([O-])OC[N+]1(CCCCOc2ccc3ccc(=O)[nH]c3c2)CCN(c2cccc3sccc23)CC1)C1CCCCC1 [EX 18, (4-(benzo[b]thiophen-4-yl)-1-(4-((2-oxo-1,2-dihydroquinolin-7-yl)oxy)butyl)piperazin-1-ium-1-yl)methyl (((cyclohexanecarbonyl)oxy)methyl)phosphate] | 8 | 0 | -10 |
| CC(C)(C)OP(=O)([O-])OC[N+]1(CCCCOc2ccc3ccc(=O)[nH]c3c2)CCN(c2cccc3sccc23)CC1 [EX 4, (4-(benzo[b]thiophen-4-yl)-1-(4-((2-oxo-1,2-dihydroquinolin-7-yl)oxy)butyl)piperazin-1-ium-1-yl)methyl tert-butyl phosphate] | -5 | 0 | 20 |
| CC(C)OCCOP(=O)([O-])OC[N+]1(CCCCOc2ccc3ccc(=O)[nH]c3c2)CCN(c2cccc3sccc23)CC1 [EX 13, (4-(benzo[b]thiophen-4-yl)-1-(4-((2-oxo-1,2-dihydroquinolin-7-yl)oxy)butyl)piperazin-1-ium-1-yl)methyl (2-isopropoxyethyl)phosphate] | -5 | 0 | 30 |
| CCCCOCCOCCOP(=O)([O-])OC[N+]1(CCCCOc2ccc3ccc(=O)[nH]c3c2)CCN(c2cccc3sccc23)CC1 [EX 99] | -6 | 0 | 0 |
| CCCCCC(=O)OCOP(=O)([O-])OC[N+]1(CCCCOc2ccc3ccc(=O)[nH]c3c2)CCN(c2cccc3sccc23)CC1 [EX 16, (4-(benzo[b]thiophen-4-yl)-1-(4-((2-oxo-1,2-dihydroquinolin-7-yl)oxy)butyl)piperazin-1-ium-1-yl)methyl ((hexanoyloxy)methyl)phosphate] | 17 | 0 | 10 |
| CCOP(=O)([O-])OC[N+]1(CCCCOc2ccc3ccc(=O)[nH]c3c2)CCN(c2cccc3sccc23)CC1 [EX 3, (4-(benzo[b]thiophen-4-yl)-1-(4-((2-oxo-1,2-dihydroquinolin-7-yl)oxy)butyl)piperazin-1-ium-1-yl)methyl ethyl phosphate] | -7 | 0 | 10 |
| COCCOCCOP(=O)([O-])OC[N+]1(CCCCOc2ccc3ccc(=O)[nH]c3c2)CCN(c2cccc3sccc23)CC1 [EX 7, (4-(benzo[b]thiophen-4-yl)-1-(4-((2-oxo-1,2-dihydroquinolin-7-yl)oxy)butyl)piperazin-1-ium-1-yl)methyl (2-(2-methoxyethoxy)ethyl)phosphate] | -4 | 0 | -60 |
